Values quoted from earlier work in patent US20260014261A1, “TARGETED PROTEIN MODIFICATION” (Weatherwax Biotechnologies Corporation, priority 2022, published 2026).

Target: p53 (Homo sapiens, UniProt P04637)
Conditions: read-out: binding affinity (Kd) for p53

p53, sequence (P04637 whole entry): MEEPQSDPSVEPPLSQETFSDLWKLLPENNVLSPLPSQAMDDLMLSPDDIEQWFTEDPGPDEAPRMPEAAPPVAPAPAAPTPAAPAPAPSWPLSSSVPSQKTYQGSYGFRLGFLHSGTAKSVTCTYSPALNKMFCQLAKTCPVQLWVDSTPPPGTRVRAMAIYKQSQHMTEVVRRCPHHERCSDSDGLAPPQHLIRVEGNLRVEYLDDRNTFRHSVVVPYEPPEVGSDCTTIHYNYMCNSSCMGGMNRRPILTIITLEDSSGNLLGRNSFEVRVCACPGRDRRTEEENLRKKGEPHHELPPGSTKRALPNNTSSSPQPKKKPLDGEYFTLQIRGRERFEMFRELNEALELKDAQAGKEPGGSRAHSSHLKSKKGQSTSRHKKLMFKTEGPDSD

SMILES: CN(C)CCCNc1nc(CN2CCN(C(c3ccc(Cl)cc3)c3ccc(Cl)cc3)CC2)nc2ccccc12 [SCH 529074]
- Kd: ~1 µM
